{"source": "paper PMC8657848", "about": "“Developmental Toxicity and Biotransformation of Two Anti-Epileptics in Zebrafish Embryos and Early Larvae” (International Journal of Molecular Sciences, 2021)", "key": {"zebrafish embryos": {"tested_on": "zebrafish embryos", "details": "cited from earlier work; for Embryos affected, combining teratogenic and lethal effects: after three days of exposure"}, "[1]": {"tested_on": "zebrafish embryos and larvae", "experiment": "Morphological evaluation of zebrafish embryos/larvae exposed from 5¼ to 120 hpf", "details": "in vivo", "experimental": "Each experiment was performed in two biological replicates (n = 2, 20 embryos/replicate) and consisted of a medium control group (EMS), solvent control group(s) (EMS + 0.5% DMSO and/or EMS + 1% DMSO) and four dose groups. […] Embryos were reared until they reached the desired developmental stage, under the same environmental conditions as the adults (28.5 °C ± 0.3 °C with a 14/10 h light/dark cycle) in the incubator (TIN-IN35, Phoenix instrument, Garbsen, Germany).\nFor the metabolites, E-CBZ (≥98% purity, CAS number: 36507-30-9, Supelco, Merck, Darmstadt, Germany) and HPPH (98% purity, CAS number: 2784-27-2, Sigma-Aldrich®, Merck, Darmstadt, Germany), we only selected one high concentration, 250 µM (see Supplementary Table S1). […] A higher percentage of DMSO was used for E-CBZ for the optimum dissolution of E-CBZ in EMS. Immediately after the selection (see Section 4.1), twenty embryos were randomly distributed in each control and test group. Embryos were exposed at the latest at 5 hpf in a final volume of 300 µL medium at a density of a fish per well.\nFor each biological replicate (n = 2), zebrafish embryos were morphologically investigated at 5¼, 10, 24, 48, 72, 96 and 120 hpf (Figure 9) using an Olympus CKX41 microscope with an Olympus U-TV0.5XC-3 lighting and an Olympys 4x/0.16 Uplan APO microscope objective (Shinjuku, Tokyo, Japon) to follow the developmental stages described by Kimmel et al.. The 5¼- and 10-hpf time points served as control steps to identify unfertilized or coagulated eggs that were included unwittingly to the experiment and referenced as coagulated in the 24-hpf morphological sheet (see Supplementary Figure S3). A series of morphological parameters were explored, adapted from Nagel et al., depending on the different time points of interest and described previously by our group (see Supplementary Figure S3). All parameters were scored 0 if normal and 1 if malformed. This binary scale was used to facilitate the scoring and no gradation of the severity of the endpoints was evaluated in this study."}, "[2]": {"experiment": "Microsomal incubation with CBZ and PHE, adult zebrafish liver microsomes", "type": "in vitro ADME, Danio rerio", "details": "data not shown"}, "[3]": {"experiment": "Quantification of compound in stock and culture medium relative to nominal concentration (LC-MS)", "type": "physicochemical", "details": "for Percentage of quantified compound concentration relatively to the nominal concentration: CBZ–E-CBZ", "experimental": "The control and test mediums were also kept in the same incubator until the last time point of the experiment. The embryo media were renewed every 48 h, to avoid medium acidification and oxygen deprivation. At each medium change and at the last time point of the experiment (Figure 9), the media exposed to the embryos were pooled and kept at −80 °C for further use (n = 3). Moreover, samples from the stock solutions kept at 28.5 °C ± 0.3 °C were also taken at 0 and 120 hpf (n = 3), whereas samples were only taken at 96 hpf for the metabolites medium (E-CBZ and HPPH)."}, "[4]": {"experiment": "Microsomal incubation with CBZ and PHE, human liver microsomes", "type": "in vitro ADME", "details": "human adult liver microsomes; data not shown", "experimental": "(§1) Moreover, positive and negative controls were included: pooled human liver microsomes (Gibco™, HMMCPL–PL050B, Thermo Fisher Scientific) and Insect Cell Control Supersomes™ (lot number: PL050 C-B, 456201, Corning Incorporated, Corning, NY, USA), respectively. Based on Oziolor et al., microsomal reactions were initiated after adding the substrate solution at a concentration of 100 µM (see Supplementary Table S1) in a mixture of 100 mM K3PO4 buffer (Corning® Gentest™, NY, USA) of pH 7.4, 5% and 1% of NADPH regenerating system reagents A and B, respectively (Corning, Woburn, MA, USA) and 200 µg/mL of microsomal protein, for a total volume of 500 µL. The reactions were performed at 28.5 ± 0.3 °C until the time point of interest. […]\n(§2) For the quantification of the metabolites E-CBZ and HPPH, the samples processed were the microsomal incubation reactions (see Section 4.3.2), the zebrafish culture and stock medium (4.2.1) and the zebrafish embryos/larvae extracts (see Section 4.2.3). […] To quantify the concentrations of E-CBZ and HPPH in these samples, standard curves (in duplicate) of 10 concentrations for E-CBZ (0.5–400 ng/mL; see Supplementary Table S1) and HPPH (2–1600 ng/mL; see Supplementary Table S1) were prepared, as were quality controls. […]"}, "[5]": {"experiment": "Microsomal incubation with CBZ and PHE, rabbit liver microsomes", "type": "in vitro ADME", "details": "rabbit adult liver microsomes; data not shown", "experimental": "as §1, §2"}, "[6]": {"details": "zebrafish (Danio rerio), 120 hpf, 31.25 µM"}, "[7]": {"details": "zebrafish (Danio rerio), 120 hpf, 85 µM"}, "[8]": {"details": "zebrafish (Danio rerio), 120 hpf, 250 µM"}}, "note": "Like-named read-outs stand apart in the source and are kept apart here."}
{"smiles": "O=C1NC(=O)C(c2ccccc2)(c2ccccc2)N1", "note": "[PHE, phenytoin]", "values": [{"measurement": "Embryos affected, combining teratogenic and lethal effects", "setting": "zebrafish embryos; 31.25 µM", "value": "less than 20%"}, {"measurement": "Embryos affected, combining teratogenic and lethal effects", "setting": "zebrafish embryos; 250 µM", "value": "around 50%"}, {"measurement": "Percentage of larvae affected at 72 hpf", "setting": "zebrafish embryos; 250 µM", "value": "45.0 ± 21.8", "unit": "%"}, {"measurement": "Teratogenicity in zebrafish (conclusion from morphological and analytical assessment)", "setting": "[1]", "value": "teratogens"}, {"measurement": "Deviation Tail Curve", "setting": "[1]; [6]", "value": "1/20"}, {"measurement": "Malformation Head Deviation Eye", "setting": "[1]; [6]", "value": "2/20"}, {"measurement": "Deviation Pigmentation", "setting": "[1]; [7]", "value": "2/20"}, {"measurement": "Deviation Tail Elbow", "setting": "[1]; [7]", "value": "1/20"}, {"measurement": "Deviation Tail Tissue Deviation", "setting": "[1]; [7]", "value": "2/20"}, {"measurement": "Deviation Tail Elbow", "setting": "[1]; [8]", "value": "2/20"}, {"measurement": "Deviation Tail Tissue Deviation", "setting": "[1]; [8]", "value": "1/20"}, {"measurement": "No Hatching", "setting": "[1]; [8]", "value": "1/20"}, {"measurement": "Oedema Head", "setting": "[1]; [8]", "value": "1/20"}, {"measurement": "Oedema Pericardium", "setting": "[1]; [8]", "value": "1/20"}, {"measurement": "Oedema Yolk", "setting": "[1]; [8]", "value": "1/20"}, {"measurement": "Decrease of parent compound after 240 min (pilot investigation)", "setting": "[2]", "value": "No decrease"}, {"measurement": "Quantified concentration in culture medium lower than the nominal concentration", "setting": "[3]; 31.25 µM, stable over time", "value": 20, "unit": "%"}, {"measurement": "Quantified concentration lower than the nominal concentration", "setting": "[3]; 85 µM, culture medium at 96 and 120 hpf and stock medium at 120 hpf", "value": "around 35%"}, {"measurement": "Quantified concentration lower than the expected concentration", "setting": "[3]; 85 µM, stock medium at 0 hpf and culture medium at 48 hpf", "value": "around 20%"}, {"measurement": "Quantified concentration as percentage of the nominal concentration", "setting": "[3]; 250 µM, stock and culture medium, all time points", "value": "≤ 45", "unit": "%"}, {"measurement": "Dissolution / precipitation in EMS", "setting": "[3]; visually observed in the stock medium for 85 and 250 µM", "value": "did not dissolve properly in the EMS and/or precipitated in EMS"}, {"measurement": "Decrease of parent compound after 240 min (pilot investigation)", "setting": "[4]", "value": "No decrease"}, {"measurement": "Decrease of parent compound after 240 min (pilot investigation)", "setting": "[5]", "value": "very slight decrease"}]}
{"smiles": "NC(=O)N1c2ccccc2C=Cc2ccccc21", "note": "[CBZ, carbamazepine]", "values": [{"measurement": "Embryos affected, combining teratogenic and lethal effects", "setting": "zebrafish embryos; 31.25 µM", "value": "less than 20%"}, {"measurement": "Embryos affected, combining teratogenic and lethal effects", "setting": "zebrafish embryos; 250 µM", "value": "around 50%"}, {"measurement": "Percentage of larvae affected at 72 hpf", "setting": "zebrafish embryos; 250 µM", "value": "48.3 ± 11.5", "unit": "%"}, {"measurement": "Teratogenicity in zebrafish (conclusion from morphological and analytical assessment)", "setting": "[1]", "value": "teratogens"}, {"measurement": "Coagulation", "setting": "[1]; [7]", "value": "2/20"}, {"measurement": "Deviation Tail Curve", "setting": "[1]; [7]", "value": "1/18"}, {"measurement": "Malformation Head Deviation Eye", "setting": "[1]; [7]", "value": "1/18"}, {"measurement": "Malformation Head Deviation Mouth", "setting": "[1]; [7]", "value": "2/18"}, {"measurement": "Malformation Head Deviation Shape Head", "setting": "[1]; [7]", "value": "3/18"}, {"measurement": "Deviation Tail Curve", "setting": "[1]; [8]", "value": "2/20"}, {"measurement": "Malformation Head Deviation Mouth", "setting": "[1]; [8]", "value": "3/20"}, {"measurement": "Oedema Yolk", "setting": "[1]; [8]", "value": "3/20"}, {"measurement": "Decrease of parent compound after 240 min (pilot investigation)", "setting": "[2]", "value": "no changes"}, {"measurement": "Percentage of quantified compound concentration relatively to the nominal concentration", "setting": "[3]; Culture medium exposed to embryos/larvae, nominal 31.25 µM, 48 hpf", "value": "95.4 ± 16.2", "unit": "%"}, {"measurement": "Percentage of quantified compound concentration relatively to the nominal concentration", "setting": "[3]; Culture medium, nominal 31.25 µM, 96 hpf", "value": "101.2 ± 21.7", "unit": "%"}, {"measurement": "Percentage of quantified compound concentration relatively to the nominal concentration", "setting": "[3]; Culture medium, nominal 31.25 µM, 120 hpf", "value": "109.6 ± 5.4", "unit": "%"}, {"measurement": "Percentage of quantified compound concentration relatively to the nominal concentration", "setting": "[3]; Culture medium, nominal 85 µM, 48 hpf", "value": "110.0 ± 4.8", "unit": "%"}, {"measurement": "Percentage of quantified compound concentration relatively to the nominal concentration", "setting": "[3]; Culture medium, nominal 85 µM, 96 hpf", "value": "116.8 ± 4.7", "unit": "%"}, {"measurement": "Percentage of quantified compound concentration relatively to the nominal concentration", "setting": "[3]; Culture medium, nominal 85 µM, 120 hpf", "value": "113.9 ± 4.5", "unit": "%"}, {"measurement": "Percentage of quantified compound concentration relatively to the nominal concentration", "setting": "[3]; Culture medium, nominal 250 µM, 48 hpf", "value": "113.4 ± 14.1", "unit": "%"}, {"measurement": "Percentage of quantified compound concentration relatively to the nominal concentration", "setting": "[3]; Culture medium, nominal 250 µM, 96 hpf", "value": "114.2 ± 2.6", "unit": "%"}, {"measurement": "Percentage of quantified compound concentration relatively to the nominal concentration", "setting": "[3]; Culture medium, nominal 250 µM, 120 hpf", "value": "111.5 ± 2.6", "unit": "%"}, {"measurement": "Percentage of quantified compound concentration relatively to the nominal concentration", "setting": "[3]; Stock, nominal 31.25 µM, 0 hpf, average of three replicates", "value": "95.6 ± 2.0", "unit": "%"}, {"measurement": "Percentage of quantified compound concentration relatively to the nominal concentration", "setting": "[3]; Stock, nominal 31.25 µM, 120 hpf", "value": "101.6 ± 7.7", "unit": "%"}, {"measurement": "Percentage of quantified compound concentration relatively to the nominal concentration", "setting": "[3]; Stock, nominal 85 µM, 0 hpf", "value": "81.7 ± 18.7", "unit": "%"}, {"measurement": "Percentage of quantified compound concentration relatively to the nominal concentration", "setting": "[3]; Stock, nominal 85 µM, 120 hpf", "value": "90.4 ± 6.6", "unit": "%"}, {"measurement": "Percentage of quantified compound concentration relatively to the nominal concentration", "setting": "[3]; Stock, nominal 250 µM, 0 hpf", "value": "92.1 ± 5.3", "unit": "%"}, {"measurement": "Percentage of quantified compound concentration relatively to the nominal concentration", "setting": "[3]; Stock, nominal 250 µM, 120 hpf", "value": "98.4 ± 4.6", "unit": "%"}, {"measurement": "Decrease of parent compound after 240 min (pilot investigation)", "setting": "[4]", "value": "no changes"}, {"measurement": "Decrease of parent compound after 240 min (pilot investigation)", "setting": "[5]", "value": "slight decrease"}]}
